Source: US10975084B2, “KDM5 inhibitors” (Merck Sharp & Dohme Corp., priority 2016, dated 2021)

What follows are compounds tested against KDM5B (Homo sapiens (Human), UniProt Q9UGL1) (assay: KDM5B TR-FRET Enzyme Activity Assay). Settings: LANCE TR-FRET; 5 nM full-length recombinant KDM5B; ten point titration 100000 nM to 5.08 nM.
Sequence of KDM5B (Q9UGL1 whole entry): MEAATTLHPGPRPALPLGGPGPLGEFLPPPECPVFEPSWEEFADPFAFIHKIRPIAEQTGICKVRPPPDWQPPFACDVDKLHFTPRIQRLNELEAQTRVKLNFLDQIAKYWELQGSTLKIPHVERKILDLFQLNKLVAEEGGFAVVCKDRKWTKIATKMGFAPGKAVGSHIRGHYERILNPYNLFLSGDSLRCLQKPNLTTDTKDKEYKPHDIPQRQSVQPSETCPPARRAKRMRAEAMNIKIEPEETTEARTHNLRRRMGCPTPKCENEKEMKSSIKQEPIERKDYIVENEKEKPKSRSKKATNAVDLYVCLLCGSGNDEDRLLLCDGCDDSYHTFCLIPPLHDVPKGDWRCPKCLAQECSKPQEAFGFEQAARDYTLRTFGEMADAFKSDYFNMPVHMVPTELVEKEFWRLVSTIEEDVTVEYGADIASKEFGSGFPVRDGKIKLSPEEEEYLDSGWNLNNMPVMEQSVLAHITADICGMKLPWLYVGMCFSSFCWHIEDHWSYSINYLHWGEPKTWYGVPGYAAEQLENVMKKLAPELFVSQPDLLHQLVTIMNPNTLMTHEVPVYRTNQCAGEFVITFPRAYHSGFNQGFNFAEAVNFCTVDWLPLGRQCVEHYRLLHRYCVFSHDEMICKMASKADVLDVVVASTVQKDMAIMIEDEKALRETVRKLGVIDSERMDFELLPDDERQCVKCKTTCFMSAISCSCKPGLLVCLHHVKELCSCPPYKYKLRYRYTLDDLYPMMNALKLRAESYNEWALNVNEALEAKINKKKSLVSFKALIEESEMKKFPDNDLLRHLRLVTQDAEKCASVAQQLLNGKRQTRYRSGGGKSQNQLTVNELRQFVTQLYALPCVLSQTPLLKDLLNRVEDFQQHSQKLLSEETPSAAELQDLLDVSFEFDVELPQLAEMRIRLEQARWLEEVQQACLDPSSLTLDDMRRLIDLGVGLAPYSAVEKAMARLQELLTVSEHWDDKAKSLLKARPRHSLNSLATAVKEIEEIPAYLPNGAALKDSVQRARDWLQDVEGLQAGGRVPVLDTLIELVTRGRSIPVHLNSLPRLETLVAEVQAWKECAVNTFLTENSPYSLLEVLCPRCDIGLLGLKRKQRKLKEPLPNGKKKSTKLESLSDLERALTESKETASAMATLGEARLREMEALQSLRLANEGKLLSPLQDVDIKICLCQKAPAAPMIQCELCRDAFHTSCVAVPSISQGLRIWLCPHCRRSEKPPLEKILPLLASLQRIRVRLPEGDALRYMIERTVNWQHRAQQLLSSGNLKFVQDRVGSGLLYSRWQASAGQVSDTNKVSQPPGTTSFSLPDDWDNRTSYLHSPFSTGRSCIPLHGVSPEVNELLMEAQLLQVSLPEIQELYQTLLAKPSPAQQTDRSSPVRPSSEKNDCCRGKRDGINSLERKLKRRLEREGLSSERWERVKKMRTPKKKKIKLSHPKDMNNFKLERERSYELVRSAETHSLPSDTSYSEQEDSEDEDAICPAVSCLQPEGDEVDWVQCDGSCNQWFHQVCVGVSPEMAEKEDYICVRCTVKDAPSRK
Assay type: biochemical
Outline: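 Full-length KDM5B from Sf21 cells (5 nM) was preincubated 30 min with compound in HEPES pH 7.3 buffer with ascorbate and 2 μM Fe(II). Reaction with 500 nM biotinylated H3K4Me3 peptide and 500 nM α-ketoglutarate ran 60 min. Product was detected by TR-FRET (Eu-anti-H3K4Me1-2/streptavidin-Dylight 650, 665/615 ratio); IC50 came from a 4-parameter fit.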
For `CC(C)c1c(-c2ccc3c(c2)OCCN3C)[nH]c2ncnn2c1=O` [Example 11-105, 5-(4-methyl-3,4-dihydro-2H-1,4-benzoxazin-7-yl)-6-(1-methylethyl)[1,2,4]triazolo[1,5-a]pyrimidin-7(4H)-one], the IC50 was 34.2 nM.
With `CC(C)c1c(-c2ccc(N3CCN(C)CC3)cc2)[nH]c2ncnn2c1=O` [Example 11-106, 6-(1-methylethyl)-5-[4-(4-methylpiperazin-1-yl)phenyl][1,2,4]triazolo[1,5-a]pyrimidin-7(4H)-one] the IC50 was 16.6 nM.
`CC(C)c1c(-c2cnn(C(C)(C)CO)c2)[nH]c2ncnn2c1=O` [Example 11-107, 5-[1-(2-hydroxy-1,1-dimethylethyl)-1H-pyrazol-4-yl]-6-(1-methylethyl)[1,2,4]triazolo[1,5-a]pyrimidin-7(4H)-one] showed an IC50 of 5.08 nM.
`CC(C)c1c(-c2ccc(CN3CCOCC3)s2)[nH]c2ncnn2c1=O` [Example 11-108, 6-(1-methylethyl)-5-[5-(morpholin-4-ylmethyl)thiophen-2-yl][1,2,4]triazolo[1,5-a]pyrimidin-7(4H)-one] showed an IC50 of 5.08 nM.
For `CC(C)c1c(-c2cnn(C3CCC3)c2)[nH]c2ncnn2c1=O` [Example 11-109, 5-(1-cyclobutyl-1H-pyrazol-4-yl)-6-(1-methylethyl)[1,2,4]triazolo[1,5-a]pyrimidin-7(4H)-one], the IC50 was 5.08 nM.
For `CC(C)c1c(-c2cnn(Cc3cccs3)c2)[nH]c2ncnn2c1=O` [Example 11-110, 6-(1-methylethyl)-5-[1-(thiophen-2-ylmethyl)-1H-pyrazol-4-yl][1,2,4]triazolo[1,5-a]pyrimidin-7(4H)-one], the IC50 was 6.7 nM.
Compound `CC(C)c1c(-c2cnn(CCO)c2)[nH]c2ncnn2c1=O` [Example 11-111, 5-[1-(2-hydroxyethyl)-1H-pyrazol-4-yl]-6-(1-methylethyl)[1,2,4]triazolo[1,5-a]pyrimidin-7(4H)-one] has an IC50 of 11.7 nM.
`CC(C)c1c(-c2cnn3c2CCC3)[nH]c2ncnn2c1=O` [Example 11-112, 5-(5,6-dihydro-4H-pyrrolo[1,2-b]pyrazol-3-yl)-6-(1-methylethyl)[1,2,4]triazolo[1,5-a]pyrimidin-7(4H)-one] showed an IC50 of 51.2 nM.
`CC(C)c1c(-c2cnc(-c3ccc(F)cc3)o2)[nH]c2ncnn2c1=O` [Example 11-113, 5-[2-(4-fluorophenyl)-1,3-oxazol-5-yl]-6-(1-methylethyl)[1,2,4]triazolo[1,5-a]pyrimidin-7(4H)-one] gave an IC50 of 17.3 nM.
`Cc1c(-c2[nH]c3ncnn3c(=O)c2C(C)C)cnn1-c1ccccc1` [Example 11-114, 6-(1-methylethyl)-5-(5-methyl-1-phenyl-1H-pyrazol-4-yl)[1,2,4]triazolo[1,5-a]pyrimidin-7(4H)-one] gave an IC50 of 337 nM.
Work on `Cc1csc(-c2[nH]c3ncnn3c(=O)c2C(C)C)c1` [Example 11-115, 6-(1-methylethyl)-5-(4-methylthiophen-2-yl)[1,2,4]triazolo[1,5-a]pyrimidin-7(4H)-one] yielded an IC50 of 122 nM.
For `Cc1nc(-c2ccccc2)sc1-c1[nH]c2ncnn2c(=O)c1C(C)C` [Example 11-116, 6-(1-methylethyl)-5-(4-methyl-2-phenyl-1,3-thiazol-5-yl)[1,2,4]triazolo[1,5-a]pyrimidin-7(4H)-one], the IC50 was 444 nM.
With `Cc1ccc(-c2[nH]c3ncnn3c(=O)c2C(C)C)o1` [Example 11-117, 6-(1-methylethyl)-5-(5-methylfuran-2-yl)[1,2,4]triazolo[1,5-a]pyrimidin-7(4H)-one] the IC50 was 552 nM.
With `CC(C)c1c(-c2ccc(N3CCNCC3)cc2)[nH]c2ncnn2c1=O` [Example 11-118, 6-(1-methylethyl)-5-(4-piperazin-1-ylphenyl)[1,2,4]triazolo[1,5-a]pyrimidin-7(4H)-one] the IC50 was 9.79 nM.
In the case of `CC(C)c1c(-c2ccc(N)c(F)c2)[nH]c2ncnn2c1=O` [Example 11-119, 5-(4-amino-3-fluorophenyl)-6-(1-methylethyl)[1,2,4]triazolo[1,5-a]pyrimidin-7(4H)-one], the IC50 is reported as 27.5 nM.
With `CC(C)c1c(-c2ccnc(C(F)(F)F)c2)[nH]c2ncnn2c1=O` [Example 11-120, 6-(1-methylethyl)-5-[2-(trifluoromethyl)pyridin-4-yl][1,2,4]triazolo[1,5-a]pyrimidin-7(4H)-one] the IC50 was 17 nM.
`CC(C)c1c(-c2cncc(C(C)(C)O)c2)[nH]c2ncnn2c1=O` [Example 11-121, 5-[5-(1-hydroxy-1-methylethyl)pyridin-3-yl]-6-(1-methylethyl)[1,2,4]triazolo[1,5-a]pyrimidin-7(4H)-one] gave an IC50 of 43.5 nM.
`CC(C)c1c(-c2cn[nH]c2)[nH]c2ncnn2c1=O` [Example 11-122, 6-(1-methylethyl)-5-(1H-pyrazol-4-yl)[1,2,4]triazolo[1,5-a]pyrimidin-7(4H)-one] was tested, and the IC50 was 13.3 nM.
`CC(C)c1c(-c2ccc3c(c2)CC(=O)N3)[nH]c2ncnn2c1=O` [Example 11-123, 6-(1-methylethyl)-5-(2-oxo-2,3-dihydro-1H-indol-5-yl)[1,2,4]triazolo[1,5-a]pyrimidin-7(4H)-one] showed an IC50 of 6.93 nM.
In the case of `CC(C)c1c(-c2ccc(NS(=O)(=O)C3CC3)cc2)[nH]c2ncnn2c1=O` [Example 11-124, N-{4-[6-(1-methylethyl)-7-oxo-4,7-dihydro[1,2,4]triazolo[1,5-a]pyrimidin-5-yl]phenyl}cyclopropanesulfonamide], the IC50 is reported as 8.76 nM.
With `CC(C)c1c(-c2cnn(C3CCCCO3)c2)[nH]c2ncnn2c1=O` (centres unmarked) [Example 11-125, 6-(1-methylethyl)-5-[1-(tetrahydro-2H-pyran-2-yl)-1H-pyrazol-4-yl][1,2,4]triazolo[1,5-a]pyrimidin-7(4H)-one] the IC50 was 7.36 nM.
Work on `CC(C)c1c(-c2ccc(N3CCCCC3)nc2)[nH]c2ncnn2c1=O` [Example 11-126, 6-(1-methylethyl)-5-(6-piperidin-1-ylpyridin-3-yl)[1,2,4]triazolo[1,5-a]pyrimidin-7(4H)-one] yielded an IC50 of 10.4 nM.
`CC(C)c1c(-c2ccc(N3CCOCC3)nc2)[nH]c2ncnn2c1=O` [Example 11-127, 6-(1-methylethyl)-5-(6-morpholin-4-ylpyridin-3-yl)[1,2,4]triazolo[1,5-a]pyrimidin-7(4H)-one] gave an IC50 of 11.6 nM.
`CC(C)c1c(-c2ccc(-n3cccn3)nc2)[nH]c2ncnn2c1=O` [Example 11-128, 6-(1-methylethyl)-5-[6-(1H-pyrazol-1-yl)pyridin-3-yl][1,2,4]triazolo[1,5-a]pyrimidin-7(4H)-one] showed an IC50 of 12.3 nM.
In the case of `CC(C)c1c(-c2ccc(F)nc2)[nH]c2ncnn2c1=O` [Example 11-129, 5-(6-fluoropyridin-3-yl)-6-(1-methylethyl)[1,2,4]triazolo[1,5-a]pyrimidin-7(4H)-one], the IC50 is reported as 66.8 nM.
`CC(C)c1c(-c2ccc(CO)nc2)[nH]c2ncnn2c1=O` [Example 11-130, 5-[6-(hydroxymethyl)pyridin-3-yl]-6-(1-methylethyl)[1,2,4]triazolo[1,5-a]pyrimidin-7(4H)-one] was tested, and the IC50 was 54.5 nM.
Compound `CC(C)c1c(-c2ccc(C#N)nc2)[nH]c2ncnn2c1=O` [Example 11-131, 5-[6-(1-methylethyl)-7-oxo-4,7-dihydro[1,2,4]triazolo[1,5-a]pyrimidin-5-yl]pyridine-2-carbonitrile] has an IC50 of 48.7 nM.
Compound `CC(C)c1c(-c2ccc(C(F)(F)F)nc2)[nH]c2ncnn2c1=O` [Example 11-132, 6-(1-methylethyl)-5-[6-(trifluoromethyl)pyridin-3-yl][1,2,4]triazolo[1,5-a]pyrimidin-7(4H)-one] has an IC50 of 41.7 nM.
`CC(C)c1c(-c2ccc(C3CC3)nc2)[nH]c2ncnn2c1=O` [Example 11-133, 5-(6-cyclopropylpyridin-3-yl)-6-(1-methylethyl)[1,2,4]triazolo[1,5-a]pyrimidin-7(4H)-one] was tested, and the IC50 was 44.4 nM.
Compound `CC(C)c1c(-c2ccn(C(C)(C)C)c2)[nH]c2ncnn2c1=O` [Example 11-134, 5-(1-tert-butyl-1H-pyrrol-3-yl)-6-(1-methylethyl)[1,2,4]triazolo[1,5-a]pyrimidin-7(4H)-one] has an IC50 of 5.08 nM.
`CC(C)c1c(-c2cc(C(C)(C)C)n[nH]2)[nH]c2ncnn2c1=O` [Example 11-135, 5-(3-tert-butyl-1H-pyrazol-5-yl)-6-(1-methylethyl)[1,2,4]triazolo[1,5-a]pyrimidin-7(4H)-one] showed an IC50 of 61 nM.
In the case of `CC(C)c1c(-c2csc(-c3ccccc3)n2)[nH]c2ncnn2c1=O` [Example 11-136, 6-(1-methylethyl)-5-(2-phenyl-1,3-thiazol-4-yl)[1,2,4]triazolo[1,5-a]pyrimidin-7(4H)-one], the IC50 is reported as 469 nM.
`CC(C)c1c(-c2csc(-n3cccn3)n2)[nH]c2ncnn2c1=O` [Example 11-137, 6-(1-methylethyl)-5-[2-(1H-pyrazol-1-yl)-1,3-thiazol-4-yl][1,2,4]triazolo[1,5-a]pyrimidin-7(4H)-one] showed an IC50 of 41.9 nM.
Compound `CC(C)c1c(-c2ccsc2)[nH]c2ncnn2c1=O` [Example 11-138, 6-(1-methylethyl)-5-thiophen-3-yl[1,2,4]triazolo[1,5-a]pyrimidin-7(4H)-one] has an IC50 of 657 nM.
With `CC(C)c1c(-c2cnco2)[nH]c2ncnn2c1=O` [Example 11-139, 6-(1-methylethyl)-5-(1,3-oxazol-5-yl)[1,2,4]triazolo[1,5-a]pyrimidin-7(4H)-one] the IC50 was 193 nM.
`CC(C)c1c(-c2csc(-n3cccc3)n2)[nH]c2ncnn2c1=O` [Example 11-140, 6-(1-methylethyl)-5-[2-(1H-pyrrol-1-yl)-1,3-thiazol-4-yl][1,2,4]triazolo[1,5-a]pyrimidin-7(4H)-one] gave an IC50 of 124 nM.
For `CC(C)c1csc(-c2[nH]c3ncnn3c(=O)c2C(C)C)c1` [Example 11-141, 6-(1-methylethyl)-5-[4-(1-methylethyl)thiophen-2-yl][1,2,4]triazolo[1,5-a]pyrimidin-7(4H)-one], the IC50 was 59.8 nM.
With `CC(C)c1c(-c2cc(C3CCC3)cs2)[nH]c2ncnn2c1=O` [Example 11-142, 5-(4-cyclobutylthiophen-2-yl)-6-(1-methylethyl)[1,2,4]triazolo[1,5-a]pyrimidin-7(4H)-one] the IC50 was 112 nM.
